Where two headings read alike, the source gives them in different places.
Experiments:
[1] = test system: human prostate cancer cells (PC3); assay: MTT dye reduction viability test, PC3; assay type: cell-based; settings: for IC50 / viability at 10 µM / viability at 20 µM / viability at 40 µM / viability at 60 µM / viability at 80 µM / viability at 100 µM: Homo sapiens; for IC50: 72 h exposure, MTT, mean ± SD, read-out: Cytotoxic activity IC50, PC3; for viability at 10 µM: PC3, 10 µM; for viability at 20 µM: PC3, 20 µM; for viability at 40 µM: PC3, 40 µM; for viability at 60 µM: PC3, 60 µM; for viability at 80 µM: PC3, 80 µM
Protocol: (§1) We have chosen two types of cell culture lines: human prostate cancer cells (PC3) and normal human immortal keratinocyte cells (HaCaT) (Table 1).
(§2) Human prostate cancer cells (PC3) and human immortal keratinocyte cell line from adult human skin (HaCaT) were obtained from American Type Culture Collection (Teddington, UK) and cultured according to its instructions RPMI 1640 (L0490) medium or DMEM (L0102) medium, respectively, in a 95% air and 5% CO2 humidified incubator at 37 °C. Both media (Biowest) were supplemented with 10% fetal bovine serum (FBS), 100 U/mL penicillin and 100 μg/mL streptomycin. 10 mM stock solutions of tested compounds in DMSO were prepared.
(§3) To assess the cells growth inhibition, the MTT dye reduction test was preformed based on the method described by Präbst et al.. Both PC3 and HaCaT cells (1 × 10^3/well) were seeded into 96-well plates and incubated for 24 h to attach to the bottom of the well in appropriate medium (200 μL) and treated with tested compounds (0–100 μM). The medium with compounds was removed after 72 h and MTT (0.5 mg/mL) in fresh growth medium without serum was added to each well. The plates were incubated in dark for 4 h at 37 °C. Then, the solution in each well was removed and refilled with 100 μL DMSO: isopropanol (1:1) to dissolve formazon crystals. The optical density was measured with an UVM 340 (ASYS Hitech GmbH, Austria) microplate reader at 570 nm. Replicates of three wells for each dosage, including vehicle control, were analyzed for each experiment. The experiments were conducted in triplicate. The results are expressed as IC50 values. The value of IC50 was estimated using CompuSyn version 1.0.

[2] = MTT dye reduction viability test, HaCaT; assay type: cell-based, human; settings: human, HaCaT cells (immortal keratinocytes); for IC50 at 72 h: 72 h exposure, MTT, mean ± SD, read-out: Cytotoxic activity IC50, HaCaT; for viability at 72 h, 10 µM / viability at 72 h, 20 µM / viability at 72 h, 40 µM / viability at 72 h, 60 µM / viability at 72 h, 80 µM / viability at 72 h, 100 µM: HaCaT
Protocol: as §1, §2, §3

rat brain homogenate = assay: Lipid peroxidation (MDA/TBA) induced by FeCl2 and ascorbic acid; assay type: biochemical; settings: for MDA concentration: oxidation by 0.1% FeCl2 and 1 mM ascorbic acid, 1 h 37 °C, control 9.644 ± 1.570
Protocol: The antioxidant potential of the new flavone derivatives was assessed based on the analysis of malondialdehyde concentration formed as a product of lipid oxidation stimulated by iron (II) ions.
After preparation, the brain was placed on an ice plate and washed with cold 0.9% NaCl. 10% (m/v) brain solution was obtained by homogenization in cold 10 mM TRIS-HCl buffer, pH = 7.5. The homogenate was centrifuged (2000 rpm, 10 min, 4 °C) to obtain supernatant 1 (S1).
100 µM stock solutions of test compounds in DMSO were prepared. The test compound solution was added to a […] S1 homogenate to a final concentration of 10 µM.
The oxidation reaction was induced by adding to the samples with or without the test compounds freshly prepared solutions: 0.1% FeCl2 (0.2 mL) and 1 mM ascorbic acid (0.4 mL). After incubation for 1 h at 37 °C, the reaction was stopped by adding 8.1% sodium dodecyl sulfate (SDS) solution. In order to determine the concentration of MDA, the acetic acid/HCl buffer at pH = 3.4 and 120 μL of 0.8% thiobarbituric acid (TBA) solution at pH = 6 were added to the samples. The samples were incubated for 1 h at 100 °C. After incubation, the samples were cooled on ice and centrifuged for 10 min at 4000 RPM. The absorbance was measured at a wavelength of 532 nm. Blank content: 0.5 mL of acetate buffer + 0.5 mL of TBA solution.
Calculation of malondialdehyde (MDA) concentration (Equation (1)):(1) MDA concentration=∆ A532 nm × 1.56 ×10^−6 [nmol MDA/h/g tissue]

[3] = test system: human immortal keratinocyte cells (HaCaT); assay: MTT dye reduction viability test, HaCaT; assay type: cell-based; settings: 72 h exposure, MTT, mean ± SD; read-out: Cytotoxic activity IC50, HaCaT
Protocol: as §1, §2, §3

[4] = 72 h, representative MTT result (Table S1 A)
[5] = PC3, 100 µM, 72 h, representative MTT result (Table S1 A), read-out: Cells viability
[6] = 72 h, representative MTT result (Table S1 B)
[7] = 100 µM, 72 h, representative MTT result (Table S1 B), read-out: Cells viability

O=C1CC(c2ccccc2)Oc2ccc(O)cc21 (stereo not shown) [6-Hydroxy-Flavanone, 6-hydroxy-flavanone, reference compound]
IC50 [1]: > 100 µM | viability at 10 µM [1, 4]: 96.4% | viability at 20 µM [1, 4]: 96% | viability at 40 µM [1, 4]: 96% | viability at 60 µM [1, 4]: 96.7% | viability at 80 µM [1, 4]: 96.4% | viability at 100 µM [1, 5]: 96.8% | viability at 100 µM ([1]; PC3, 100 μM, 72 h incubation, read-out: cells viability compared to control cells): 89% | IC50 at 72 h [2]: > 100 µM | viability at 72 h, 10 µM [2, 6]: 99.7% | viability at 72 h, 20 µM [2, 6]: 115% | viability at 72 h, 40 µM [2, 6]: 113% | viability at 72 h, 60 µM [2, 6]: 104% | viability at 72 h, 80 µM [2, 6]: 72.2% | viability at 72 h, 100 µM [2, 7]: 74.4% | viability at 72 h, 100 µM ([2]; 100 μM, 72 h incubation, read-out: cells viability compared to control cells): 73% | MDA concentration (rat brain homogenate; 10 µM compound): 7.077 ± 1.815 mM × 10^−3 | reduction of the level of MDA compared to the control sample (rat brain homogenate; 10 µM compound, rat brain homogenate): 26.62%

CCC=CCC=CCC=CCCCCCCCC(=O)Oc1ccc2c(c1)C(=O)CC(c1ccccc1)O2 (stereo not shown) [6-Linolenic-Flavanone, 6-hydroxy-flavanone linolenic ester]
IC50 [1]: 51.4 ± 2.8 µM | viability at 10 µM [1, 4]: 92.5% | viability at 20 µM [1, 4]: 85.9% | viability at 40 µM [1, 4]: 79.5% | viability at 60 µM [1, 4]: 48% | viability at 80 µM [1, 4]: 35.8% | viability at 100 µM [1, 5]: 31.5% | IC50 at 72 h [2]: 80 ± 4.75 µM | viability at 72 h, 10 µM [2, 6]: 95.8% | viability at 72 h, 20 µM [2, 6]: 75.2% | viability at 72 h, 40 µM [2, 6]: 53.3% | viability at 72 h, 60 µM [2, 6]: 38.1% | viability at 72 h, 80 µM [2, 6]: 25.8% | viability at 72 h, 100 µM [2, 7]: 23.8% | IC50 [3]: 44.6 ± 5.89 µM

CC=CC=CC(=O)Oc1ccc2c(c1)C(=O)CC(c1ccccc1)O2 (stereo not shown) [6-Sorbic-Flavanone, 6-hydroxy-flavanone sorbic ester]
IC50 [1]: 54.7 ± 5.25 µM | viability at 10 µM [1, 4]: 95.6% | viability at 20 µM [1, 4]: 88.7% | viability at 40 µM [1, 4]: 82.1% | viability at 60 µM [1, 4]: 41.3% | viability at 80 µM [1, 4]: 28.7% | viability at 100 µM [1, 5]: 32.6% | IC50 at 72 h [2]: 79.8 ± 2.21 µM | viability at 72 h, 10 µM [2, 6]: 98.7% | viability at 72 h, 20 µM [2, 6]: 96.7% | viability at 72 h, 40 µM [2, 6]: 89.6% | viability at 72 h, 60 µM [2, 6]: 75.7% | viability at 72 h, 80 µM [2, 6]: 56.7% | viability at 72 h, 100 µM [2, 7]: 31.4% | MDA concentration (rat brain homogenate; 10 µM compound): 6.938 ± 0.392 mM × 10^−3 | antioxidant potential compared to the original compound (in words) (rat brain homogenate; MDA in rat brain homogenate): slight increase in antioxidant potential | melting point: 129.4 to 130.8 °C

CCCCCCCCCCCCCCCCCC(=O)Oc1ccc2c(c1)C(=O)CC(c1ccccc1)O2 (stereo not shown) [6-Stearic-Flavanone, 6-hydroxy-flavanone stearic ester]
IC50 [1]: > 100 µM | viability at 10 µM [1, 4]: 96.5% | viability at 20 µM [1, 4]: 106% | viability at 40 µM [1, 4]: 99.6% | viability at 60 µM [1, 4]: 93.9% | viability at 80 µM [1, 4]: 93.6% | viability at 100 µM [1, 5]: 93.7% | cytotoxic potential in PC3 cells (in words) ([1]; PC3, 0–100 μM, 72 h): no cytotoxic potential | IC50 at 72 h [2]: 40.6 ± 4.21 µM | viability at 72 h, 10 µM [2, 6]: 95.4% | viability at 72 h, 20 µM [2, 6]: 82.5% | viability at 72 h, 40 µM [2, 6]: 54.7% | viability at 72 h, 60 µM [2, 6]: 47.8% | viability at 72 h, 80 µM [2, 6]: 32.5% | viability at 72 h, 100 µM [2, 7]: 11.7% | IC50 [3]: 40.6 ± 4.21 µM | MDA concentration (rat brain homogenate; 10 µM compound): 7.875 ± 0.343 mM × 10^−3

CCCCCC=CCC=CCCCCCCCC(=O)Oc1ccc2c(=O)cc(-c3ccccc3)oc2c1 [7-Linoleic-Flavone, 7-hydroxy-flavone linoleic ester]
IC50 [1]: 41.2 ± 2.3 µM | viability at 10 µM [1, 4]: 84.6% | viability at 20 µM [1, 4]: 70.4% | viability at 40 µM [1, 4]: 46.7% | viability at 60 µM [1, 4]: 35.9% | viability at 80 µM [1, 4]: 34.3% | viability at 100 µM [1, 5]: 39.5% | IC50 at 72 h [2]: 65 ± 4.12 µM | viability at 72 h, 10 µM [2, 6]: 88.4% | viability at 72 h, 20 µM [2, 6]: 73.2% | viability at 72 h, 40 µM [2, 6]: 74.5% | viability at 72 h, 60 µM [2, 6]: 57% | viability at 72 h, 80 µM [2, 6]: 44.6% | viability at 72 h, 100 µM [2, 7]: 34% | MDA concentration (rat brain homogenate; 10 µM compound): 8.010 ± 0.008 mM × 10^−3

CCCCCCCCC=CCCCCCCCC(=O)Oc1ccc2c(=O)cc(-c3ccccc3)oc2c1 [7-Oleic-Flavone, 7-hydroxy-flavone oleic ester]
IC50 [1]: 39.3 ± 2.11 µM | viability at 10 µM [1, 4]: 92.2% | viability at 20 µM [1, 4]: 80.8% | viability at 40 µM [1, 4]: 48.2% | viability at 60 µM [1, 4]: 41% | viability at 80 µM [1, 4]: 42.2% | viability at 100 µM [1, 5]: 38.9% | IC50 at 72 h [2]: 44.9 ± 6.44 µM | viability at 72 h, 10 µM [2, 6]: 95.3% | viability at 72 h, 20 µM [2, 6]: 79.3% | viability at 72 h, 40 µM [2, 6]: 51.9% | viability at 72 h, 60 µM [2, 6]: 39.9% | viability at 72 h, 80 µM [2, 6]: 38.7% | viability at 72 h, 100 µM [2, 7]: 44.9% | MDA concentration (rat brain homogenate; 10 µM compound): 8.465 ± 0.834 mM × 10^−3 | melting point: 73.3 to 74.5 °C

CC=CC=CC(=O)Oc1ccc2c(=O)cc(-c3ccccc3)oc2c1 [7-Sorbic-Flavone, 7-hydroxy-flavone sorbic ester]
IC50 [1]: 94.3 ± 4.24 µM | viability at 10 µM [1, 4]: 84% | viability at 20 µM [1, 4]: 80.9% | viability at 40 µM [1, 4]: 93.6% | viability at 60 µM [1, 4]: 74.5% | viability at 80 µM [1, 4]: 69.6% | viability at 100 µM [1, 5]: 75.2% | IC50 at 72 h [2]: 50.8 ± 2.48 µM | viability at 72 h, 10 µM [2, 6]: 97.5% | viability at 72 h, 20 µM [2, 6]: 87.2% | viability at 72 h, 40 µM [2, 6]: 80.1% | viability at 72 h, 60 µM [2, 6]: 41% | viability at 72 h, 80 µM [2, 6]: 57.4% | viability at 72 h, 100 µM [2, 7]: 43.7% | MDA concentration (rat brain homogenate; 10 µM compound): 8.361 ± 0.050 mM × 10^−3 | melting point: 137.8 to 139.7 °C

CCCCCCCCCCCCCCCCCC(=O)Oc1ccc2c(=O)cc(-c3ccccc3)oc2c1 [7-Stearic-Flavone, 7-hydroxy-flavone stearic ester]
IC50 [1]: 33.2 ± 4.81 µM | viability at 10 µM [1, 4]: 100% | viability at 20 µM [1, 4]: 87.7% | viability at 40 µM [1, 4]: 41.8% | viability at 60 µM [1, 4]: 32.2% | viability at 80 µM [1, 4]: 47.9% | viability at 100 µM [1, 5]: 27.5% | IC50 at 72 h [2]: 45.6 ± 7.2 µM | viability at 72 h, 10 µM [2, 6]: 95.8% | viability at 72 h, 20 µM [2, 6]: 65.3% | viability at 72 h, 40 µM [2, 6]: 59.1% | viability at 72 h, 60 µM [2, 6]: 39.8% | viability at 72 h, 80 µM [2, 6]: 35.7% | viability at 72 h, 100 µM [2, 7]: 20.7% | MDA concentration (rat brain homogenate; 10 µM compound): 8.151 ± 0.343 mM × 10^−3 | melting point: 84.5 to 85.7 °C
